These results are taken from ChEMBL document CHEMBL1124716, “Structure and activity of hydrogenated derivatives of (+)-5-methyl-10,11-dihydro-5H-dibenzo[a,d]cyclohepten-5,10-imine (MK-801)” (J Med Chem, 1990).

Test [1] is described as follows: Ability to inhibit [3H]-MK-801 binding to N-methyl-D-aspartate glutamate receptor of rat cortical membranes.
Test [2] can be described thus: N-methyl-D-aspartate glutamate receptor antagonist activity was determined in rat cortical slice preparation. The test is classed as functional.

A word on the IC50: it is the point on the concentration scale where inhibition reaches its midpoint. What is called Kb is the affinity of an antagonist, worked out from how it opposes an agonist. The low end stands for a more potent antagonist, the high end for a less potent antagonist.

In test [1], `CC12NC(Cc3ccccc31)CC1CCCCC12` (stereo not given) came in with an IC50 of 164 nM. Moreover, the Kb in test [2] came out at 250 nM.

With `CC12N[C@H](CC3=C1CCCC3)c1ccccc12`, in test [1], the half-maximal inhibitory concentration (IC50) was 193 nM. For the same compound, the Kb in test [2] was determined as 270 nM.

As for `CC12N[C@H](CC3CCCCC31)c1ccccc12` (stereo not given in full), the IC50 in test [1] turned out to be 188 nM. In test [2], this compound gave a Kb of 130 nM.

In the case of `CC12N[C@H](Cc3ccccc31)C1=CCCCC12` (stereo not given in full), in test [1], the IC50 was found to be 60 nM. In test [2], this compound showed a Kb of 300 nM.

`CN1C2(C)c3ccccc3C1(C)C1CCCCC12` (stereo not given): the half-inhibitory concentration (IC50) in test [1] is 111 nM.

`CC12N[C@H](CC3=C1CCCC3)C1CCCCC12` (stereo not given in full) had an IC50 in test [1] of 80 nM. In addition, in test [2], the Kb amounted to 280 nM.

For `CN1[C@@H]2Cc3ccccc3[C@@]1(C)C1CCCCC12` (stereo not given in full), the concentration for half-maximal inhibition (IC50) in test [1] came out at 96 nM. The compound further yielded a Kb in test [2] of 290 nM.

In test [1], `CC12N[C@H](Cc3ccccc31)C1CCCCC12` (stereo not given in full) had a 50% inhibitory concentration (IC50) of 16 nM. For the same compound, the Kb in test [2] was determined as 230 nM.

For the compound `OCCC12N[C@H](Cc3ccccc31)C1CCCCC12` (stereo not given in full), the IC50 in test [1] was found to be 220 nM. This compound also gave a Kb in test [2] of 240 nM.

In the case of `COc1ccc2c(c1)C1(C)N[C@@H]2CC2CCCCC21` (stereo not given in full), the half-inhibitory concentration (IC50) in test [1] was found to be 240 nM. This compound also displayed a Kb in test [2] of 310 nM.

With `CC12N[C@@H](C3CCCCC31)[C@H](O)c1ccccc12` (stereo not given in full), the IC50 in test [1] came to 69 nM. Also, the Kb in test [2] is 250 nM.

`CC12N[C@H](CC3CCCCC31)C1CCCCC12` (stereo not given in full): in test [1], the half-maximal inhibitory concentration (IC50) worked out at 35 nM. Also, the antagonist equilibrium constant (Kb) in test [2] is 800 nM.

As for `OCCC12N[C@](O)(Cc3ccccc31)C1CCCCC12` (stereo not given in full), in test [1], the half-inhibitory concentration (IC50) is 396 nM. Further, the antagonist dissociation constant (Kb) in test [2] is 770 nM.

For the compound `CC12N[C@H](Cc3ccccc31)C1=C2CC=CC1`, the IC50 in test [1] was determined as 20 nM.

Take `CC12N[C@H](Cc3ccccc31)C1=CC=CCC12` (stereo not given in full): the concentration for half-maximal inhibition (IC50) in test [1] amounted to 21 nM. This compound also registered a Kb in test [2] of 270 nM.

In turn, `CC12NC(Cc3ccccc31)c1ccccc12` (single isomer, unassigned) gave a concentration for half-maximal inhibition (IC50) in test [1] of 30.5 nM. The compound also had a Kb in test [2] of 130 nM.
